How the values were obtained:
Experiment in all cases: Test C preemergence
Assay type in all cases: in vivo
[1] = test system: Galium (catchweed bedstraw, Galium aparine); settings: for Plant response rating (scale of 0 to 100), Galium: 0 is no effect, 100 is complete control; for Plant response rating, Galium: scale 0 to 100, 0 no effect, 100 complete control
In short: (§1)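 Scores of 0 to 100 reflect visual comparison with control plants, where 0 means no effect and 100 complete control, made 13 to 15 d after treatment. Application was preemergence to seeds in loam-sand soil or postemergence to plants 2 to 18 cm tall in peat-based mix, using a surfactant-containing solvent formulation.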

corn (Zea mays) = settings: for Plant response rating (scale of 0 to 100), Corn: 0 is no effect, 100 is complete control; for Plant response rating, Corn: scale 0 to 100, 0 no effect, 100 complete control
In short: as §1

[2] = test system: morningglory (Ipomoea coccinea); settings: for Plant response rating (scale of 0 to 100), Morningglory: 0 is no effect, 100 is complete control; for Plant response rating, Morningglory: scale 0 to 100, 0 no effect, 100 complete control
In short: as §1

[3] = test system: pigweed (Amaranthus retroflexus); settings: for Plant response rating (scale of 0 to 100), Pigweed: 0 is no effect, 100 is complete control; for Plant response rating, Pigweed: scale 0 to 100, 0 no effect, 100 complete control
In short: as §1

[4] = test system: waterhemp (common waterhemp, Amaranthus rudis); settings: for Plant response rating (scale of 0 to 100), Waterhemp: 0 is no effect, 100 is complete control; for Plant response rating, Waterhemp: scale 0 to 100, 0 no effect, 100 complete control
In short: as §1

soybean (Glycine max) = settings: for Plant response rating (scale of 0 to 100), Soybean: 0 is no effect, 100 is complete control; for Plant response rating, Soybean: scale 0 to 100, 0 no effect, 100 complete control
In short: as §1

[5] = test system: ragweed (common ragweed, Ambrosia elatior); settings: for Plant response rating (scale of 0 to 100), Ragweed: 0 is no effect, 100 is complete control; for Plant response rating, Ragweed: scale 0 to 100, 0 no effect, 100 complete control
In short: as §1

[6] = test system: barnyardgrass (Echinochloa crus-galli); settings: for Plant response rating (scale of 0 to 100), Barnyardgrass: 0 is no effect, 100 is complete control; for Plant response rating, Barnyardgrass: scale 0 to 100, 0 no effect, 100 complete control
In short: as §1

[7] = test system: lambsquarters (Chenopodium album); settings: for Plant response rating (scale of 0 to 100), Lambsquarters: 0 is no effect, 100 is complete control; for Plant response rating, Lambsquarters: scale 0 to 100, 0 no effect, 100 complete control
In short: as §1

[8] = test system: crabgrass, large (large crabgrass, Digitaria sanguinalis); settings: for Plant response rating (scale of 0 to 100), Crabgrass, Large: 0 is no effect, 100 is complete control; for Plant response rating, Crabgrass, Large: scale 0 to 100, 0 no effect, 100 complete control
In short: as §1

[9] = test system: foxtail, giant (giant foxtail, Setaria faberii); settings: for Plant response rating (scale of 0 to 100), Foxtail, Giant: 0 is no effect, 100 is complete control; for Plant response rating, Foxtail, Giant: scale 0 to 100, 0 no effect, 100 complete control
In short: as §1

[10] = test system: ryegrass, Italian (Italian ryegrass, Lolium multiflorum); settings: for Plant response rating (scale of 0 to 100), Ryegrass, Italian: 0 is no effect, 100 is complete control; for Plant response rating, Ryegrass, Italian: scale 0 to 100, 0 no effect, 100 complete control
In short: as §1

[11] = test system: wheat (winter wheat, Triticum aestivum); settings: for Plant response rating (scale of 0 to 100), Wheat: 0 is no effect, 100 is complete control; for Plant response rating, Wheat: scale 0 to 100, 0 no effect, 100 complete control
In short: as §1

[12] = test system: nutsedge, yellow (yellow nutsedge, Cyperus esculentus); settings: for Plant response rating (scale of 0 to 100), Nutsedge, Yellow: 0 is no effect, 100 is complete control; for Plant response rating, Nutsedge, Yellow: scale 0 to 100, 0 no effect, 100 complete control
In short: as §1

[13] = test system: velvetleaf (Abutilon theophrasti); settings: for Plant response rating (scale of 0 to 100), Velvetleaf: 0 is no effect, 100 is complete control; for Plant response rating, Velvetleaf: scale 0 to 100, 0 no effect, 100 complete control
In short: as §1

[14] = test system: oilseed rape (Brassica napus); settings: for Plant response rating (scale of 0 to 100), Oilseed Rape: 0 is no effect, 100 is complete control; for Plant response rating, Oilseed Rape: scale 0 to 100, 0 no effect, 100 complete control
In short: as §1

CN1CC(c2ccc(C(C)(F)F)cc2)C(C(=O)Nc2ccccc2F)C1=O (stereo not drawn) [Compound 691]
55: Plant response rating, Corn (corn (Zea mays); 62 g ai/ha) | Plant response rating, Ryegrass, Italian ([10]; 125 g ai/ha)
85: Plant response rating (scale of 0 to 100), Pigweed ([3]; 31 g ai/ha) | Plant response rating (scale of 0 to 100), Waterhemp ([4]; 16 g ai/ha) | Plant response rating (scale of 0 to 100), Waterhemp ([4]; 31 g ai/ha) | Plant response rating, Ragweed ([5]; 125 g ai/ha) | Plant response rating (scale of 0 to 100), Lambsquarters ([7]; 31 g ai/ha)
60: Plant response rating, Wheat ([11]; 62 g ai/ha)
0: Plant response rating (scale of 0 to 100), Corn (corn (Zea mays); 16 g ai/ha) | Plant response rating (scale of 0 to 100), Morningglory ([2]; 16 g ai/ha) | Plant response rating (scale of 0 to 100), Soybean (soybean (Glycine max); 16 g ai/ha) | Plant response rating (scale of 0 to 100), Soybean (soybean (Glycine max); 31 g ai/ha) | Plant response rating (scale of 0 to 100), Ragweed ([5]; 16 g ai/ha) | Plant response rating (scale of 0 to 100), Ryegrass, Italian ([10]; 16 g ai/ha) | Plant response rating (scale of 0 to 100), Ryegrass, Italian ([10]; 31 g ai/ha) | Plant response rating (scale of 0 to 100), Nutsedge, Yellow ([12]; 16 g ai/ha) | Plant response rating (scale of 0 to 100), Nutsedge, Yellow ([12]; 31 g ai/ha) | Plant response rating, Nutsedge, Yellow ([12]; 62 g ai/ha) | Plant response rating (scale of 0 to 100), Oilseed Rape ([14]; 16 g ai/ha)
70: Plant response rating, Ragweed ([5]; 62 g ai/ha) | Plant response rating (scale of 0 to 100), Lambsquarters ([7]; 16 g ai/ha)
30: Plant response rating (scale of 0 to 100), Morningglory ([2]; 31 g ai/ha)
95: Plant response rating, Galium ([1]; 62 g ai/ha) | Plant response rating, Galium ([1]; 125 g ai/ha) | Plant response rating, Waterhemp ([4]; 62 g ai/ha) | Plant response rating, Waterhemp ([4]; 125 g ai/ha) | Plant response rating (scale of 0 to 100), Foxtail, Giant ([9]; 16 g ai/ha) | Plant response rating (scale of 0 to 100), Foxtail, Giant ([9]; 31 g ai/ha)
35: Plant response rating (scale of 0 to 100), Pigweed ([3]; 16 g ai/ha) | Plant response rating, Ryegrass, Italian ([10]; 62 g ai/ha) | Plant response rating (scale of 0 to 100), Oilseed Rape ([14]; 31 g ai/ha)
40: Plant response rating (scale of 0 to 100), Corn (corn (Zea mays); 31 g ai/ha) | Plant response rating, Morningglory ([2]; 125 g ai/ha) | Plant response rating, Velvetleaf ([13]; 62 g ai/ha)
90: Plant response rating, Pigweed ([3]; 62 g ai/ha) | Plant response rating (scale of 0 to 100), Barnyardgrass ([6]; 16 g ai/ha) | Plant response rating (scale of 0 to 100), Barnyardgrass ([6]; 31 g ai/ha) | Plant response rating, Lambsquarters ([7]; 62 g ai/ha) | Plant response rating, Lambsquarters ([7]; 125 g ai/ha)
98: Plant response rating, Barnyardgrass ([6]; 62 g ai/ha) | Plant response rating (scale of 0 to 100), Crabgrass, Large ([8]; 16 g ai/ha) | Plant response rating, Foxtail, Giant ([9]; 62 g ai/ha) | Plant response rating, Foxtail, Giant ([9]; 125 g ai/ha)
100: Plant response rating (scale of 0 to 100), Galium ([1]; 16 g ai/ha) | Plant response rating (scale of 0 to 100), Galium ([1]; 31 g ai/ha) | Plant response rating, Pigweed ([3]; 125 g ai/ha) | Plant response rating (scale of 0 to 100), Ragweed ([5]; 31 g ai/ha) | Plant response rating, Barnyardgrass ([6]; 125 g ai/ha) | Plant response rating (scale of 0 to 100), Crabgrass, Large ([8]; 31 g ai/ha) | Plant response rating, Crabgrass, Large ([8]; 62 g ai/ha) | Plant response rating, Crabgrass, Large ([8]; 125 g ai/ha)
80: Plant response rating, Wheat ([11]; 125 g ai/ha) | Plant response rating, Oilseed Rape ([14]; 125 g ai/ha)
15: Plant response rating, Soybean (soybean (Glycine max); 62 g ai/ha) | Plant response rating, Soybean (soybean (Glycine max); 125 g ai/ha)
65: Plant response rating, Corn (corn (Zea mays); 125 g ai/ha)
10: Plant response rating (scale of 0 to 100), Wheat ([11]; 16 g ai/ha) | Plant response rating (scale of 0 to 100), Wheat ([11]; 31 g ai/ha) | Plant response rating (scale of 0 to 100), Velvetleaf ([13]; 16 g ai/ha)
20: Plant response rating, Morningglory ([2]; 62 g ai/ha) | Plant response rating, Nutsedge, Yellow ([12]; 125 g ai/ha)
25: Plant response rating (scale of 0 to 100), Velvetleaf ([13]; 31 g ai/ha)
50: Plant response rating, Velvetleaf ([13]; 125 g ai/ha) | Plant response rating, Oilseed Rape ([14]; 62 g ai/ha)

CN1CC(c2ccc(C(F)(F)F)c(F)c2)C(C(=O)Nc2ccccc2S(C)(=O)=O)C1=O (stereo not drawn) [Compound 397]
10: Plant response rating, Nutsedge, Yellow ([12]; 62 g ai/ha)
100: Plant response rating, Crabgrass, Large ([8]; 125 g ai/ha) | Plant response rating, Crabgrass, Large ([8]; 250 g ai/ha)
75: Plant response rating, Corn (corn (Zea mays); 250 g ai/ha) | Plant response rating, Ragweed ([5]; 62 g ai/ha) | Plant response rating, Lambsquarters ([7]; 125 g ai/ha) | Plant response rating, Lambsquarters ([7]; 250 g ai/ha)
95: Plant response rating, Pigweed ([3]; 125 g ai/ha) | Plant response rating, Pigweed ([3]; 250 g ai/ha) | Plant response rating, Waterhemp ([4]; 250 g ai/ha) | Plant response rating, Barnyardgrass ([6]; 62 g ai/ha) | Plant response rating, Foxtail, Giant ([9]; 31 g ai/ha) | Plant response rating, Foxtail, Giant ([9]; 62 g ai/ha)
80: Plant response rating, Galium ([1]; 62 g ai/ha) | Plant response rating, Oilseed Rape ([14]; 125 g ai/ha)
70: Plant response rating, Morningglory ([2]; 250 g ai/ha) | Plant response rating, Ragweed ([5]; 125 g ai/ha) | Plant response rating, Ragweed ([5]; 250 g ai/ha) | Plant response rating, Lambsquarters ([7]; 62 g ai/ha) | Plant response rating, Wheat ([11]; 250 g ai/ha) | Plant response rating, Nutsedge, Yellow ([12]; 250 g ai/ha) | Plant response rating, Oilseed Rape ([14]; 62 g ai/ha)
15: Plant response rating, Corn (corn (Zea mays); 62 g ai/ha)
50: Plant response rating, Nutsedge, Yellow ([12]; 125 g ai/ha)
30: Plant response rating, Lambsquarters ([7]; 31 g ai/ha) | Plant response rating, Velvetleaf ([13]; 125 g ai/ha)
45: Plant response rating, Wheat ([11]; 62 g ai/ha) | Plant response rating, Wheat ([11]; 125 g ai/ha) | Plant response rating, Velvetleaf ([13]; 250 g ai/ha)
90: Plant response rating, Galium ([1]; 125 g ai/ha) | Plant response rating, Galium ([1]; 250 g ai/ha) | Plant response rating, Pigweed ([3]; 62 g ai/ha) | Plant response rating, Waterhemp ([4]; 62 g ai/ha) | Plant response rating, Barnyardgrass ([6]; 31 g ai/ha)
25: Plant response rating, Corn (corn (Zea mays); 31 g ai/ha) | Plant response rating, Velvetleaf ([13]; 62 g ai/ha)
85: Plant response rating, Oilseed Rape ([14]; 250 g ai/ha)
20: Plant response rating, Soybean (soybean (Glycine max); 250 g ai/ha) | Plant response rating, Ragweed ([5]; 31 g ai/ha) | Plant response rating, Oilseed Rape ([14]; 31 g ai/ha)
98: Plant response rating, Waterhemp ([4]; 125 g ai/ha) | Plant response rating, Barnyardgrass ([6]; 125 g ai/ha) | Plant response rating, Barnyardgrass ([6]; 250 g ai/ha) | Plant response rating, Crabgrass, Large ([8]; 31 g ai/ha) | Plant response rating, Crabgrass, Large ([8]; 62 g ai/ha) | Plant response rating, Foxtail, Giant ([9]; 125 g ai/ha) | Plant response rating, Foxtail, Giant ([9]; 250 g ai/ha)
55: Plant response rating, Morningglory ([2]; 62 g ai/ha) | Plant response rating, Pigweed ([3]; 31 g ai/ha)
0: Plant response rating, Soybean (soybean (Glycine max); 62 g ai/ha) | Plant response rating, Soybean (soybean (Glycine max); 125 g ai/ha) | Plant response rating, Nutsedge, Yellow ([12]; 31 g ai/ha)
5: Plant response rating, Morningglory ([2]; 31 g ai/ha)
60: Plant response rating, Corn (corn (Zea mays); 125 g ai/ha) | Plant response rating, Morningglory ([2]; 125 g ai/ha) | Plant response rating, Ryegrass, Italian ([10]; 62 g ai/ha) | Plant response rating, Ryegrass, Italian ([10]; 125 g ai/ha) | Plant response rating, Ryegrass, Italian ([10]; 250 g ai/ha)
40: Plant response rating, Galium ([1]; 31 g ai/ha)

— patent US12077503B2, “Substituted cyclic amides and their use as herbicides” (FMC CORPORATION, priority 2015, dated 2024)
